Consider 1 compound from patent US9487596B2, “Compound isolated from quamoclit, and composition for preventing or treating diabetes containing the compound as an active ingredient” (NANOBIOTECH CO., LTD., priority 2011, dated 2016).

SMILES strings stand for the structures.

One data set deals with VEGF protein. In words: VEGF protein expression in ARPE 19 cells induced with 30 mM glucose (VEGF ELISA). Type of data set: cell-based, human. The note with it: 0.5 μg/ml, 72 hours, FIG. 5. The procedure: In order to confirm inhibition activity of VEGF of the novel compound isolated from the Quamoclit angulata prepared in Example 1 above, ARPE 19 cell line which is human retinal pigment epithelium cell line was treated with the novel compound and expression of the VEGF protein inducting diabetic complications such as diabetic retinopathy, and the like was confirmed.
10% fetal bovine serum (FBS) was added to DMEM; F12 medium and ARPE 19 cell line (ATCC, USA) was cultured therein. In order to induce expression of the VEGF protein from ARPE 19 cell line, the cells were smeared on 60Φ plate at a concentration of 1×10^5 cell/plate, 10% FBS serum-free was added to DMEM low glucose medium, followed by culturing for 24 hours, the culture fluid was changed into a culture fluid containing 30 mM glucose in the DMEM low glucose medium, and the novel compound KRIBB-BH-P was added thereto so that a final concentration thereof was 0.5 μg/ml, followed by culturing for 72 hours in order to confirm production of VEGF protein. […]
The culture fluid of ARPE 19 cell cultured by the above-described method was obtained and an amount of the secreted VEGF was measured using VEGF ELISA kit (R&D, UK).
Background: ELISA stands for enzyme-linked immunosorbent assay.

Another data set concerns Min 6 cell line. In words: Insulin secretion in Min 6 pancreatic β cell line (insulin ELISA). It is filed as cell-based, mouse. The note with it: Min 6 cells, 25 mM glucose, 0.5 ng/ml, 2 hours, FIG. 6. The method, then: An insulin secretion acceleration activity of the novel compound KRIBB-BH-P isolated from Quamoclit angulata was confirmed in Min 6 cell line which is a mouse pancreatic β cell tumor.
15% FBS was added to HDMEM medium and Min 6(ATCC, USA) was cultured therein. In order to induce insulin expression from Min 6 cell line, the cells were smeared on a 96 well plate at a concentration of 1×10^4 cell/plate, 15% FBS serum-free was added to DMEM high glucose medium, followed by culturing for 72 hours, washing with PBS buffer solution, and then culturing in HBSS buffer solution for 2 hours, the culture fluid was changed into HBSS buffer solution having 25 mM glucose added thereto, and the novel compound KRIBB-BH-P was added thereto so that a final concentration thereof was 0.5 ng/ml, followed by culturing for 2 hours in order to confirm whether or not the insulin expression was promoted. Here, an amount of insulin expression in cell in which insulin expression was not induced by treatment with 5.5 mM glucose was set as a reference point which is a control group, and a positive control group was prepared by adding amino-guanidine of 1 μM, acarbose of 1 μM, glimepiride of 1 mM. […] The culture fluid of Min 6 cell cultured by the above-described method was obtained and an amount of the secreted insulin was measured using Insulin ELISA kit (R&D, UK).

Another data set deals with lens. In words: Lens culture experiment, xylose-induced lens opacity. The note with it: mouse lens, 20 mM xylose, compared to positive control quercetin, FIG. 7. The procedure:
In the case of diabetic, a cataract is developed at an early stage, becomes rapidly worse and eyesight is rapidly deteriorated. Diabetes promotes opaque crystalline lens. Accordingly, diabetic cataract inhibition efficiency was examined by a lens culture experiment.
Eyes of a mouse was extracted and put into an iodine solution to be disinfected and then only the lens was extracted. The extracted eyes were put into M199 medium and cultured in a cell incubator. 20 mM xylose was added to the medium to induce lens opacity and the induced lens opacity was measured using CCD camera.

Another data set concerns C57BL/Ks DB/DB mouse. In words: Blood glucose in diabetic mice. The note with it: oral, each of 0.1 mg/kg, 1 mg/kg and 10 mg/kg, 12 weeks, FIG. 8. Type of data set: in vivo. The method, then: Normal mice and diabetic mice were treated with the Quamoclit angulata-derived novel compound and change in diabetic indexes including blood glucose, glycated hemoglobin, and urinary protein was confirmed.
6-week-old mice (Male C57BL/6J mouse, 20 g, Central Lab. Animal Inc., Seoul) and 6-week-old diabetic mice (Male C57BL/Ks DB/DB mouse, 20 g, Central Lab. Animal Inc., Seoul) were purchased and adopted under predetermined temperature (25° C.) and humidity (50%) for 1 week and used in an experiment.
(§1) A normal mouse control group, a diabetic mouse control group, a diabetic mouse group treated with drugs (glimepiride and acarbose), and a diabetic mouse group treated with Quamoclit angulata-derived novel compound were prepared, wherein each group had five mice, and each group treated with the combination administration of the Quamoclit angulata-derived novel compound was treated by oral administration at each concentration of 0.1 mg/kg, 1 mg/kg and 10 mg/kg and raised for 12 weeks. A change in blood glucose in mice of each group was measured every 2 weeks and urine was collected every 6 weeks to measure a urinary protein concentration, and mice was raised for 12 weeks and blood thereof was collected to measure glycated hemoglobin concentration.

The test system of another data set is C57BL/6J mouse. The experiment in a line: Oral glucose tolerance test in high-fat diet mice. The note with it: oral dosing 1, 2, 4, 8, 16, 24 hours before glucose 2 g/kg, result for the 24 hours group, FIG. 9. It is filed as in vivo. The method, then:
In order to conduct an oral glucose tolerance test, a 5-week-old mouse (Male C57BL/6J, 19 g, Koatech, Pyeongtaek-si, Gyeonggi-do, Korea) was purchased and adopted under predetermined temperature (25° C.) and humidity (50%) for 1 week and used in an experiment. A general diet group having a general feed as a food and a high-fat diet group having a high-fat feed as a feed were prepared, wherein each group had five mice, and raised for 2 weeks. At the time of two weeks after feeding with high-fat diet, the experimental mice were fasting for 16 hours, and the fasting blood glucose was measured, and then, the sample was orally administered at 1, 2, 4, 8, 16, and 24 hours before measuring the blood glucose, followed by oral administration of glucose 2 g/kg (body weight) and blood glucose thereof was measured every 30 minutes.

The subject of data set [1] is diabetic mouse. In words: Glycated hemoglobin (HbAlc) in diabetic mice (ELISA). It is filed as in vivo. The note with it: oral 10 mg/kg, compared to the normal mouse control group (so in the source), FIG. 10. The method, then:
as §1
In order to decrease complications developed in patients receiving diabetes treatment, it is important to maintain blood glucose at an appropriate level. Since blood glucose measured at one time point may be changed by various factors, the most widely used test with a purpose of identifying a long-term change in regulation of blood glucose is glycated hemoglobin (HbAlc). […] Since the glycated hemoglobin reflects an average blood glucose value for 2 to 4 months, it is useful for identify a degree of regulation of blood glucose in a long term. […]

The subject of a further data set is diabetic model mouse. The experiment in a line: Creatinine in blood and urine of diabetic mice (ELISA). It is filed as in vivo. The note with it: oral, 12 weeks, FIG. 11. From the text:
Diabetic patients are common to have both of kidney and heart complication. Diabetes may damage kidney which filters and excretes our body's waste. Through creatinine test, a concentration of creatinine in a blood may be measured and a function of kidney may be evaluated creatinine, which is a product obtained by dehydrating creatine produced after protein is used in muscle, is present in a blood with an extremely small amount. In the case in which a function of the kidney is deteriorated, creatinine may not be excreted. Urine and blood from diabetic model mouse of each group treated by oral administration for 12 weeks were collected, and creatinine was measured using ELISA kit (R&D, USA).

Data set [2] has as its system diabetic mouse. In words: Liver toxicity test: alanine transaminase in blood of diabetic mice. It is filed as in vivo. The note with it: oral 0.1-10 mg/kg, 12 weeks, FIG. 12. The method, then:
A 6-week-old mouse and a 6-week-old diabetic mouse which are the same as Example 5 above were adapted under predetermined temperature (25° C.) and humidity (50%) for 1 week and used in a liver toxicity test.
A normal mouse control group, a diabetic mouse control group, and each diabetic mouse group treated with Quamoclit angulata-derived novel compound by oral administration at each concentration of 0.1 mg/kg, 1 mg/kg and 10 mg/kg were prepared, wherein each group had five mice, and raised for 12 week. After raising the mice for 12 weeks, blood thereof was collected and a concentration of alanine transaminase was measured.
The alanine transaminase, which is a metabolic enzyme of amino acid, is used in a representative test for diagnosis and result observation.
In order to confirm effects of the Quamoclit angulata-derived novel compound on liver, a normal mouse control group, a diabetic mouse control group and each group treated with Quamoclit angulata-derived novel compound by oral administration at each concentration of 0.1 mg/kg, 1 mg/kg and 10 mg/kg were raised for 12 weeks and blood thereof were collected and a change in alanine transaminase measured using ELISA kit (Cusabio biotech, Japan).

For data set [3], the system named is diabetic mouse. The experiment in a line: Liver function: bilirubin in blood of diabetic mice (ELISA). It is filed as in vivo. The note with it: blood after 12 weeks, FIG. 13. The procedure:
In order to confirm whether or not liver function was normal in the group treated with Quamoclit angulata-derived novel compound, bilirubin value was measured using ELISA kit (Cusabio biotech, Japan) using blood collected in Example above. […] Therefore, it may be appreciated that the composition of the present invention is safe composition not causing abnormal liver function.

In data set [4] the test system is diabetic mouse. The experiment in a line: Insulin resistance (HOMA-IR) and β-cell functionality (HOMA-beta) in diabetic mice. Type of data set: in vivo. The note with it: FIG. 14. The procedure: Insulin and blood glucose of the diabetic mouse group raised under conditions of Example 7 above were measured by the fasting blood test or glucose tolerance test and insulin sensitivity index thereof was calculated.
Insulin resistance was evaluated using the insulin sensitivity index which is homeostasis assessment (HOMA)-IR and β-cell Functionality was evaluated by HOMA-beta.
HOMA-IR=(Fasting insulin (μIU/mL)×Fasting glucose ([…]))/22.5 HOMA-beta=20×Fasting insulin (U/mL)/Fasting glucose (mmol/L)−3.5

In the next data set the test system is adiponectin. The experiment in a line: Adiponectin concentration in blood of diabetic mice (ELISA). It is filed as in vivo, mouse. The note with it: FIG. 15. From the text: It has consistently proven that adiponectin is secreted from fat cells and abundantly present in blood, is decreased in an obesity patient or type 2 diabetic. In addition, low hypoadiponectinemia is on the rise as a new risk factor of artherosclerotic disease, and a concentration of adiponectin in diabetic patients, in particular, patients accompanying macrovascular complications is decreased. That is, adiponectin has an anti-obesity action, an anti-diabetic action, anti-atherogenic action and an inhibition action of active oxygen generation. A concentration of adiponectin in the blood of the diabetic mouse group raised under conditions of Example 7 was measured using ELISA kit (R&D, USA).

A further data set concerns glucagon. The experiment in a line: Plasma glucagon concentration in diabetic mice. It is filed as in vivo, mouse. From the text: In type 2 diabetic patients, blood glucose is increased, insulin secretion by glucose intake is delayed, and glucagon is increased. It is generally known that decrease in a ratio of insulin to plasma glucagon is associated with deterioration of diabetes. Therefore, a concentration of glucagon of the diabetic mouse group raised under conditions of Example 7 above was confirmed.

For the next data set, the target named is T1, DPP-IV (Mus musculus, UniProt P28843).
T1 construct: from tissue
In words: DPP-IV activity in diabetic mice. It is filed as in vivo. The note with it: FIG. 17. From the text:
Both of GIP and GLP-1 are rapidly decomposed by dipeptidyl peptidase (DPP)-4 which is a series of serine protease. DPP-4 inhibition efficacy of the diabetic mouse group raised under conditions of Example 7 above was confirmed based on the above description.

The next data set relates to alpha-glucosidase. In words: Alpha-glucosidase activity in diabetic mice. It is filed as in vivo, mouse. The note with it: FIG. 18. The method, then: Activity of alpha-glucosidase of the diabetic mouse group raised under conditions of Example 7 above was measured based on the above-description.
In a further data set the test system is TNF-α. The experiment in a line: TNF-α concentration in diabetic mice. The note with it: FIG. 19. Type of data set: in vivo, mouse. The method, then:
TNF-α concentration of the diabetic mouse group raised under conditions of Example 7 above was measured based on the above-description.

The subject of data set [5] is diabetic mouse. In words: Anti-cataract effect: eye lens turbidity in diabetic mice. The note with it: FIG. 20. Type of data set: in vivo. The method, then: Eye lens was isolated from eyeball extracted from the diabetic mouse group raised under conditions of Example 7 above and moved to a well plate and then a photograph thereof was taken by LAS 3000 image analysis system. Turbidity of the eye lens was measured by analyzing the photograph using LAS 300 image analysis program.

T1 sequence (P28843 whole entry): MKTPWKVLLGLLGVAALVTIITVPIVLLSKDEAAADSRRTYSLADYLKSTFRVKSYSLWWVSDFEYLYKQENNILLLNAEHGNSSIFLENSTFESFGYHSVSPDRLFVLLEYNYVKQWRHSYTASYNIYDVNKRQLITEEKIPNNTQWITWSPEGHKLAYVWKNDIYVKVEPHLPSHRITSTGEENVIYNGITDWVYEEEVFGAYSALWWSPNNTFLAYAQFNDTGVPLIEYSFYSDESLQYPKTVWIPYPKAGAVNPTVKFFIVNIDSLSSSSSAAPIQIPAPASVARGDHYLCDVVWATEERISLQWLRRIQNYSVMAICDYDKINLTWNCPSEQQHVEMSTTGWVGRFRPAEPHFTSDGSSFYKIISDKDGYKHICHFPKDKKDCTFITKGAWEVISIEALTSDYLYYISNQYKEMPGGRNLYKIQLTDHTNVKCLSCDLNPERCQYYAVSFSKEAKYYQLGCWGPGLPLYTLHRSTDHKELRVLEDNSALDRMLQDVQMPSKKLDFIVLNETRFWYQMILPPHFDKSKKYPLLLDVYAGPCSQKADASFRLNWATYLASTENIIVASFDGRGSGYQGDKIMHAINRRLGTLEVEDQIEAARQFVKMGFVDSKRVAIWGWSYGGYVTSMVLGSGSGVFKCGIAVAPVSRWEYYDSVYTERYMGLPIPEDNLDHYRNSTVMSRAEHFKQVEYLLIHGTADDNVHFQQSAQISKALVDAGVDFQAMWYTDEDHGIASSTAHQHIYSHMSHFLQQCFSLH

For `CCCCCC(CCCC(O)CC(=O)O)OC1OC(COC2OC(C)C(OC3CC(O)C(O)C(C)O3)CC2O)C(O)C(O)C1OC1CC(O)C(OC2CC(O)C(OC3CC(O)C(OC)C(C)O3)C(C)O2)C(C)O1` (stereo not shown) [KRIBB-BH-P], the VEGF expression entry with VEGF protein was “decreased”. In the data set on Min 6 cell line, the insulin expression entry was “increased”. In addition, the lens opacity result with lens is listed as “more inhibited”. For the same compound, the blood glucose entry with C57BL/Ks DB/DB mouse is “remarkably decreased”. In the data set on C57BL/6J mouse, the “efficacy in oral glucose tolerance test (blood glucose)” value was “highest efficacy”. Also, the glycated hemoglobin value entry in the data set on diabetic mouse [1] is on record as “remarkably decreased”. Further, in the data set with diabetic model mouse, the “concentration of creatinine in the blood” value was “decreased” and the “concentration of creatinine in the urine” value is given as “increased”. Further, the liver toxicity result with diabetic mouse [2] is recorded as “no liver toxicity”. For the same compound, the bilirubin value entry in the data set on diabetic mouse [3] was “included in a normal range”. In the data set on diabetic mouse [4], the “insulin resistance (HOMA-IR)” value is given as “remarkably excellent result” and the “β-cell functionality (HOMA-beta)” value is recorded as “remarkably excellent result”. In the data set on adiponectin, the expression of adiponectin entry is reported as “increased”. In addition, the “concentration ratio of insulin to glucagon” value in the data set on glucagon (compared to the diabetic mouse control group) is reported as “remarkably increased”. In addition, the “concentration of plasma glucagon” value in the data set with glucagon (lower than that of the group treated with the drugs, FIG. 16) is listed as “remarkably decreased”. The “activity of DPP IV” value at DPP-IV is listed as “inhibited”. Further, the activity of alpha-glucosidase result in the data set on alpha-glucosidase is “inhibited”. Also, in the data set with TNF-α, the TNF-α concentration entry is listed as “decreased”. The “turbidity of the eye lens” value with diabetic mouse [5] is given as “decreased”.
